Values after ≈ are worked out from the molar mass of the structure shown. Read-outs that look alike come from different tables or passages of the source.
What was measured:
Assay type in all cases: cell-based
[1] = test system: Staph. epi; assay: in vitro agar dilution assay (MIC), Staph. epi; settings: read-out: Agar Dilution MIC
[2] = test system: Strep. A; assay: in vitro agar dilution assay (MIC), Strep. A; settings: read-out: Agar Dilution MIC
Text: (§1) A typical and preferred compound provided by this invention is 7-(thieno[3,2-b]thien-2-yl)glycylamido-3-methyl-3-cephem-4-carboxylic acid, the compound illustrated in Example 1. The antibacterial activity of this compound and others of the invention has been determined in standard in vitro agar dilution assays against a variety of gram positive microorganisms. The following Tables present typical minimum inhibitory concentrations (MIC's) in μg/ml for several compounds of the invention when evaluated against the indicated microorganisms. MIC's for several known compounds are also presented for comparison.

[3] = test system: Strep. PN; assay: in vitro agar dilution assay (MIC), Strep. PN; settings: read-out: Agar Dilution MIC
Text: as §1

[4] = test system: H. influ.; assay: in vitro agar dilution assay (MIC), H. influ.
[5] = test system: Klebsiella; assay: in vitro agar dilution assay (MIC), Klebsiella
[6] = test system: Strep. D; assay: in vitro agar dilution assay (MIC), Strep. D; settings: for MIC: read-out: Agar Dilution MIC
Text: as §1

[7] = test system: Staph. aureus; assay: in vitro agar dilution assay (MIC), Staph. aureus; settings: Staphylococcus aureus
[8] = test system: E. coli; assay: in vitro agar dilution assay (MIC), E. coli; settings: Escherichia coli
[9] = Klebsiella strain X26, read-out: Agar Dilution MIC
[10] = Klebsiella strain X68, read-out: Agar Dilution MIC
[11] = read-out: Agar Dilution MIC, Staph. aureus strain S13E
[12] = Klebsiella strain KAE, read-out: Agar Dilution MIC
[13] = Staph. aureus strain X400, read-out: Agar Dilution MIC
[14] = Staph. aureus strain X1.1, read-out: Agar Dilution MIC
[15] = Staph. aureus strain V41, read-out: Agar Dilution MIC

Row | Structure (SMILES) | MIC ([1]; Staph. epi strain EPI1) [µg/mL] | MIC ([2]; Strep. A strain C203) [µg/mL] | MIC ([3]; Strep. PN strain PARK) [µg/mL] | MIC ([4]; H. influ. strain 76) [µg/mL] | MIC ([4]; H. influ. strain C.L.) [µg/mL] | MIC [5, 9] [µg/mL] | MIC [5, 10] [µg/mL] | MIC ([6]; Strep. D strain 2041) [µg/mL] | MIC [7, 11] [µg/mL] | MIC ([8]; E. coli strain EC14) [µg/mL] | MIC ([8]; E. coli strain N10) [µg/mL] | MIC ([8]; E. coli strain TEM) [µg/mL] | MIC ([1]; Staph. epi strain 222) [µg/mL] | MIC [5, 12] [µg/mL] | MIC ([6]; Strep. D strain X66) [µg/mL] | MIC [7, 13] [µg/mL] | MIC ([7]; read-out: Agar Dilution MIC) [µg/mL] | MIC [7, 14] [µg/mL] | MIC [7, 15] [µg/mL] | other results
1 | CC1(C)S[C@@H]2[C@H](NC(=O)[C@H](N)c3ccccc3)C(=O)N2[C@H]1C(=O)O [Ampicillin, reference compound] | 8 (≈ 22.9 µM) | 0.03 (≈ 0.0859 µM) | 0.03 (≈ 0.0859 µM) | 16 (≈ 45.8 µM) | 0.5 (≈ 1.43 µM) | 16 (≈ 45.8 µM) | 16 (≈ 45.8 µM) | 2 (≈ 5.72 µM) | 64 (≈ 183 µM) | 4 (≈ 11.4 µM) | 8 (≈ 22.9 µM) | – | – | – | – | – | – | – | – | MIC [6]: 4 µg/mL (≈ 11.4 µM)
2 | CC1=C(C(=O)O)N2C(=O)[C@@H](NC(=O)[C@H](N)c3ccccc3)[C@H]2SC1 [Cephalexin, reference compound] | 32 (≈ 92.1 µM) | – | – | – | – | – | – | – | 128 (≈ 368 µM) | 4 (≈ 11.5 µM) | 8 (≈ 23 µM) | 8 (≈ 23 µM) | – | – | – | – | – | – | – | MIC [1]: 8 µg/mL (≈ 23 µM); MIC [2]: 0.5 µg/mL (≈ 1.44 µM); MIC [3]: 2 µg/mL (≈ 5.76 µM); MIC ([5]; read-out: Agar Dilution MIC, Klebsiella strain KAE): 128 µg/mL (≈ 368 µM); MIC ([5]; read-out: Agar Dilution MIC, Klebsiella strain X26): 4 µg/mL (≈ 11.5 µM); MIC ([5]; read-out: Agar Dilution MIC, Klebsiella strain X68): 8 µg/mL (≈ 23 µM); Agar Dilution MIC ([6]; Strep. D strain 2041): 128 µg/mL; MIC [6]: 128 µg/mL (≈ 368 µM)
3 | CC1=C(C(=O)O)N2C(=O)[C@@H](NC(=O)[C@H](N)c3cc4sccc4s3)[C@H]2SC1 [Ex. 1A, 7-D-(thieno[3,2-b]thien-2-yl)-glycylamido-3-methyl-3-cephem-4-carboxylic acid] | 16 (≈ 39.1 µM) | 0.25 (≈ 0.61 µM) | 1 (≈ 2.44 µM) | 2 (≈ 4.88 µM) | 64 (≈ 156 µM) | 8 (≈ 19.5 µM) | > 64 | > 64 | 64 (≈ 156 µM) | > 64 | > 64 | > 64 | 2 (≈ 4.88 µM) | > 64 | > 64 | > 64 | 32 (≈ 78.1 µM) | 0.5 (≈ 1.22 µM) | – | –
4 | CC1=C(C(=O)O)N2C(=O)[C@@H](NC(=O)[C@@H](N)c3cc4sccc4s3)[C@H]2SC1 [Ex. 1B, 7-L-(thieno[3,2-b]thien-2-yl)-glycylamido-3-methyl-3-cephem-4-carboxylic acid] | 64 (≈ 156 µM) | 16 (≈ 39.1 µM) | 16 (≈ 39.1 µM) | – | 64 (≈ 156 µM) | > 64 | > 64 | > 64 | 64 (≈ 156 µM) | > 64 | > 64 | > 64 | 16 (≈ 39.1 µM) | > 64 | > 64 | > 64 | 32 (≈ 78.1 µM) | 8 (≈ 19.5 µM) | – | –
5 | CC1=C(C(=O)O)N2C(=O)[C@@H](NC(=O)[C@@H](N)c3cc4sc(Cl)cc4s3)[C@H]2SC1 [Ex. 2A, 7-L-(5-chlorothieno[3,2-b]thien-2-yl)glycylamido-3-methyl-3-cephem-4-carboxylic acid] | 16 (≈ 36 µM) | 1 (≈ 2.25 µM) | 2 (≈ 4.5 µM) | 2 (≈ 4.5 µM) | 64 (≈ 144 µM) | 64 (≈ 144 µM) | > 64 | > 64 | 32 (≈ 72.1 µM) | > 64 | > 64 | > 64 | 2 (≈ 4.5 µM) | > 64 | > 64 | > 64 | – | 1 (≈ 2.25 µM) | 64 (≈ 144 µM) | –
6 | CC1=C(C(=O)O)N2C(=O)[C@@H](NC(=O)[C@H](N)c3cc4sc(Cl)cc4s3)[C@H]2SC1 [Ex. 2B, 7-D-(5-chlorothieno[3,2-b]thien-2-yl)glycylamido-3-methyl-3-cephem-4-carboxylic acid] | 4 (≈ 9.01 µM) | 0.125 (≈ 0.282 µM) | 0.25 (≈ 0.563 µM) | 2 (≈ 4.5 µM) | 32 (≈ 72.1 µM) | 16 (≈ 36 µM) | > 64 | 64 (≈ 144 µM) | – | > 64 | > 64 | > 64 | 0.5 (≈ 1.13 µM) | > 64 | > 64 | > 64 | – | 0.25 (≈ 0.563 µM) | 16 (≈ 36 µM) | –
7 | CC1=C(C(=O)O)N2C(=O)[C@@H](NC(=O)[C@H](N)c3cc4ccsc4s3)[C@H]2SC1 [Ex. 3A, 7-D-(thieno[2,3-b]thien-2-yl)-glycylamido-3-methyl-3-cephem-4-carboxylic acid] | 4 (≈ 9.77 µM) | 0.25 (≈ 0.61 µM) | 0.5 (≈ 1.22 µM) | 2 (≈ 4.88 µM) | – | 8 (≈ 19.5 µM) | > 64 | > 64 | 16 (≈ 39.1 µM) | 64 (≈ 156 µM) | > 64 | > 64 | 1 (≈ 2.44 µM) | > 64 | > 64 | > 64 | 32 (≈ 78.1 µM) | 0.5 (≈ 1.22 µM) | – | –
8 | CC1=C(C(=O)O)N2C(=O)[C@@H](NC(=O)[C@@H](N)c3cc4ccsc4s3)[C@H]2SC1 [Ex. 3B, 7-L-(thieno[2,3-b]thien-2-yl)-glycylamido-3-methyl-3-cephem-4-carboxylic acid] | 8 (≈ 19.5 µM) | 1 (≈ 2.44 µM) | 2 (≈ 4.88 µM) | 1 (≈ 2.44 µM) | 16 (≈ 39.1 µM) | 16 (≈ 39.1 µM) | > 64 | > 64 | 64 (≈ 156 µM) | > 64 | > 64 | > 64 | 2 (≈ 4.88 µM) | > 64 | > 64 | > 64 | – | 1 (≈ 2.44 µM) | 64 (≈ 156 µM) | –

— patent US4581352A, “Thienothienylglycyl cephalosporin derivatives” (priority 1984, dated 1986)
